Test [1] has as its system HI650 (Lung Adenocarcinoma). The test can be described thus: Cell viability analysis, lung cancer HI650. Format: cell-based, human. The conditions noted are these: Homo sapiens.
Test [2] deals with A549 (Lung Adenocarcinoma). The test is described as follows: Cell viability analysis, lung cancer A549. The test is classed as cell-based, human. The conditions noted are these: Homo sapiens.
In test [3] the test system is AGS (Gastric Adenocarcinoma). The test can be described thus: Cell viability analysis, gastric cancer AGS. The test is classed as cell-based, human. The conditions noted are these: Homo sapiens.
Test [4] concerns MKN-45 (Gastric Adenocarcinoma). The test can be described thus: Cell viability analysis, gastric cancer MKN-45. The conditions noted are these: Homo sapiens, MKN-45, 72 h. The test is classed as cell-based, human.
Test [5] has as its system HepG2 (Hepatocellular Carcinoma). The test is described as follows: Cell viability analysis, hepatic cancer HepG2. Format: cell-based, human. The conditions noted are these: Homo sapiens.
Test [6] deals with LoVo (Colorectal Adenocarcinoma). The test is described as follows: Cell viability analysis, colon cancer LoVo. The conditions noted are these: Homo sapiens, LoVo. Format: cell-based, human.
Test [7] relates to A375 (Amelanotic Melanoma). The test can be described thus: Cell viability analysis, skin cancer A375. The test is classed as cell-based, human. The conditions noted are these: Homo sapiens.
The test system of test [8] is HeLa (Cervix Adenocarcinoma). The test can be described thus: Cell viability analysis, cervical cancer HeLa. Format: cell-based, human. The conditions noted are these: Homo sapiens, HeLa.
Test [9] deals with PC3 (p53−) (Prostate Adenocarcinoma). The test can be described thus: Cell viability analysis, prostate cancer PC3. The conditions noted are these: Homo sapiens. The test is classed as cell-based, human.
Test [10] deals with TSGH-8301 (Urinary Bladder Carcinoma). The test is described as follows: Cell viability analysis, bladder cancer TSGH-8301. The conditions noted are these: Homo sapiens. The test is classed as cell-based, human.
Test [11] relates to MCF7 (Mammary Gland, Adenocarcinoma). The test can be described thus: Cell viability analysis, breast cancer MCF7. The test is classed as cell-based, human. The conditions noted are these: Homo sapiens.
For test [12], the system named is HL-60 (Acute Promyelocytic Leukemia). The test can be described thus: Cell viability analysis, leukemia HL-60. The conditions noted are these: Homo sapiens. Format: cell-based, human.
Test [13] deals with HCT116 (p53+) (Colorectal Carcinoma). The test can be described thus: cells. The conditions noted are these: Homo sapiens, HCT-116, 72 h, read-out: cell viability (survival rate), HCT116.
[14] abbreviates: NCI-H1650, 72 h, drug 10 μM, 72 hours, WST-1, OD450 nm, read-out: cell viability (survival rate), H1650.
Where [15] appears, read: A549, 72 h, drug 10 μM, 72 hours, WST-1, OD450 nm, read-out: cell viability (survival rate), A549.
Where [16] appears, read: 72 h, drug 10 μM, 72 hours, WST-1, OD450 nm, read-out: cell viability (survival rate), AGS.
Setting [17] is: drug 10 μM, 72 hours, WST-1, OD450 nm, read-out: cell viability (survival rate), MKN-45.
[18] abbreviates: HepG2, 72 h, drug 10 μM, 72 hours, WST-1, OD450 nm, read-out: cell viability (survival rate), HepG2.
Where [19] appears, read: 72 h, read-out: cell viability (survival rate), LoVo, drug 10 μM, 72 hours, WST-1, OD450 nm.
Where [20] appears, read: A-375, 72 h, drug 10 μM, 72 hours, WST-1, OD450 nm, read-out: cell viability (survival rate), A375.
[21] abbreviates: 72 h, drug 10 μM, 72 hours, WST-1, OD450 nm, read-out: cell viability (survival rate), HeLa.
The mark [22] stands for this setting: 72 h, drug 10 μM, 72 hours, WST-1, OD450 nm, read-out: cell viability (survival rate), PC3.
Where [23] appears, read: HL-60, 72 h, drug 10 μM, 72 hours, WST-1, OD450 nm, read-out: cell viability (survival rate), HL-60.
The mark [24] stands for this setting: NCI-H1650, 72 h, read-out: cell viability (survival rate), H1650, drug 10 μM, 72 hours, WST-1, OD450 nm.
The mark [25] stands for this setting: A549, 72 h, read-out: cell viability (survival rate), A549, drug 10 μM, 72 hours, WST-1, OD450 nm.
Setting [26] is: 72 h, read-out: cell viability (survival rate), AGS, drug 10 μM, 72 hours, WST-1, OD450 nm.
Setting [27] is: read-out: cell viability (survival rate), MKN-45, drug 10 μM, 72 hours, WST-1, OD450 nm.
Where [28] appears, read: HepG2, 72 h, read-out: cell viability (survival rate), HepG2, drug 10 μM, 72 hours, WST-1, OD450 nm.
The mark [29] stands for this setting: A-375, 72 h, read-out: cell viability (survival rate), A375, drug 10 μM, 72 hours, WST-1, OD450 nm.
The mark [30] stands for this setting: 72 h, read-out: cell viability (survival rate), HeLa, drug 10 μM, 72 hours, WST-1, OD450 nm.
The mark [31] stands for this setting: 72 h, read-out: cell viability (survival rate), PC3, drug 10 μM, 72 hours, WST-1, OD450 nm.
[32] abbreviates: 72 h, read-out: cell viability (survival rate), TSGH, drug 10 μM, 72 hours, WST-1, OD450 nm.
[33] abbreviates: MCF7, 72 h, read-out: cell viability (survival rate), MCF7, drug 10 μM, 72 hours, WST-1, OD450 nm.
Where [34] appears, read: HL-60, 72 h, read-out: cell viability (survival rate), HL-60, drug 10 μM, 72 hours, WST-1, OD450 nm.

Like-named read-outs stand apart in the source and are kept apart here.

The viability is a read-out of living cells in per cent, often relative to untreated cells. Take `OC[C@H]1O[C@H](O[C@]2(CCl)O[C@H](CCl)[C@@H](O)[C@@H]2O)[C@H](O)[C@@H](O)[C@H]1Cl` [Sucralose]: the viability at 10 µM in test [1] (setting [14]) turned out to be 72%; in test [2] (setting [15]), 74.3%; in [3] (setting [16]), 66.7%; in test [4] (setting [17]), 94.1%; in [5] (setting [18]), 95.3%; in test [6] (setting [19]), 73.8%. In addition, the viability at 10 µM in test [7] (setting [20]) stood at 83.3%; in test [8] (setting [21]) it was 77.9%; in test [9] (setting [22]), 78.8%; in test [10] (72 h, drug 10 μM, 72 hours, WST-1, OD450 nm, read-out: cell viability (survival rate), TSGH), 94.3%; in test [11] (MCF7, 72 h, drug 10 μM, 72 hours, WST-1, OD450 nm, read-out: cell viability (survival rate), MCF7), 71.2%; in [12] (setting [23]), 88.5%. In addition, the viability at 10 µM in test [13] came to 54.8%.

Turning to `C[C@@H]1CCC[C@H](C)N1NC(=O)c1ccc(Cl)c(S(N)(=O)=O)c1` [Clopamide], the viability at 10 µM in [1] (setting [24]) is 54%; in [2] (setting [25]) it was 32.4%; in test [3] (setting [26]), 50.3%; in test [4] (setting [27]), 89.4%; in test [5] (setting [28]) it was 92.8%; in test [6] (setting [19]), 54.3%. For the same compound, the viability at 10 µM in test [7] (setting [29]) was 63.1%; in test [8] (setting [30]), 87.1%; in [9] (setting [31]) it was 40.3%; in test [10] (setting [32]), 59%; in test [11] (setting [33]) it was 33.4%; in test [12] (setting [34]), 102%. In addition, in [13], the viability at 10 µM is 102%.

`NC(CO)(CO)CO` [Trometamol]: the viability at 10 µM in [1] (setting [24]) was found to be 95.4%; in [2] (setting [25]), 79.5%; in [3] (setting [26]), 78.1%; in [4] (setting [27]), 88.3%; in test [5] (setting [28]), 96.7%; in test [6] (setting [19]), 68%. The viability at 10 µM in test [7] (setting [29]) is 126%; in [8] (setting [30]) it was 90.9%; in test [9] (setting [31]), 97%; in test [10] (setting [32]), 102%; in [11] (setting [33]), 98.8%; in test [12] (setting [34]), 91.3%. In addition, the viability at 10 µM in test [13] was determined as 90.4%.

For `Cc1cc(O)ccc1Cl` [Chlorocresol], the viability at 10 µM came to 91.5% in test [1] (NCI-H1650, 72 h, read-out: cell viability (survival rate), H1650); 80.1% in test [2] (A549, 72 h, read-out: cell viability (survival rate), A549); 103% in test [3] (72 h, read-out: cell viability (survival rate), AGS); 98.6% in [5] (HepG2, 72 h, read-out: cell viability (survival rate), HepG2); 62% in test [6] (72 h, read-out: cell viability (survival rate), LoVo); 65.4% in test [7] (A-375, 72 h, read-out: cell viability (survival rate), A375). For the same compound, the viability at 10 µM was 96.3% in test [8] (72 h, read-out: cell viability (survival rate), HeLa); 130% in [9] (72 h, read-out: cell viability (survival rate), PC3); 113% in [10] (72 h, read-out: cell viability (survival rate), TSGH); 64.2% in [11] (MCF7, 72 h, read-out: cell viability (survival rate), MCF7); 96.4% in [12] (HL-60, 72 h, read-out: cell viability (survival rate), HL-60); 61.7% in test [13].

For the compound `COC(=O)C1=CO[C@@H](O)[C@@H]2C(CO)=CC[C@H]12` [Genipin], the viability at 10 µM stood at 69.5% in [1] (setting [24]); 61.8% in test [2] (setting [25]); 49.6% in test [3] (setting [26]); 54.1% in [4] (setting [27]); 87.1% in test [5] (setting [28]); 78% in test [7] (setting [29]). For the same compound, the viability at 10 µM was determined as 74.5% in [8] (setting [30]); 71.6% in [9] (setting [31]); 67.7% in test [10] (setting [32]); 71.7% in test [11] (setting [33]); 117% in test [12] (setting [34]); 82.7% in [13].

Turning to `CCCCCCCCCCCCCCCCO` [1-Hexadecanol], the viability at 10 µM was 84.3% in test [1] (setting [14]); 84% in test [2] (setting [15]); 89.4% in [3] (setting [16]); 85.5% in test [4] (setting [17]); 96% in [5] (setting [18]); 98.8% in test [6] (setting [19]). The viability at 10 µM in [7] (setting [20]) amounted to 113%; in test [8] (setting [21]) it was 91.3%; in [9] (setting [22]), 91.9%; in [12] (setting [23]), 92.2%; in [13], 69.8%.

On to `CNC[C@H](O)[C@@H](O)[C@H](O)[C@H](O)CO` [Meglumine], for which the viability at 10 µM worked out at 62% in test [1] (NCI-H1650, drug 10 μM, 72 hours, WST-1, OD450 nm, read-out: cell viability (survival rate), H1650); 108% in test [2] (A549, drug 10 μM, 72 hours, WST-1, OD450 nm, read-out: cell viability (survival rate), A549); 95% in test [3] (drug 10 μM, 72 hours, WST-1, OD450 nm, read-out: cell viability (survival rate), AGS); 90.8% in test [5] (HepG2, drug 10 μM, 72 hours, WST-1, OD450 nm, read-out: cell viability (survival rate), HepG2); 78.4% in test [6] (drug 10 μM, 72 hours, WST-1, OD450 nm, read-out: cell viability (survival rate), LoVo); 78.2% in test [7] (A-375, drug 10 μM, 72 hours, WST-1, OD450 nm, read-out: cell viability (survival rate), A375). Moreover, the viability at 10 µM in test [8] (drug 10 μM, 72 hours, WST-1, OD450 nm, read-out: cell viability (survival rate), HeLa) is 74.1%; in test [9] (drug 10 μM, 72 hours, WST-1, OD450 nm, read-out: cell viability (survival rate), PC3), 76.8%; in [10] (drug 10 μM, 72 hours, WST-1, OD450 nm, read-out: cell viability (survival rate), TSGH), 109%; in [11] (MCF7, drug 10 μM, 72 hours, WST-1, OD450 nm, read-out: cell viability (survival rate), MCF7), 97%; in [12] (HL-60, drug 10 μM, 72 hours, WST-1, OD450 nm, read-out: cell viability (survival rate), HL-60), 114%; in test [13] it was 92.7%.

As to `O=c1cc[nH]c(=O)[nH]1` [Uracil], the viability at 10 µM in test [1] (setting [24]) stood at 91.8%; in test [2] (setting [25]), 80.5%; in [3] (setting [26]) it was 82.9%; in [5] (setting [28]), 100%; in test [6] (setting [19]), 70.2%; in test [7] (setting [29]) it was 98.2%. In addition, the viability at 10 µM in test [8] (setting [30]) was found to be 107%; in test [9] (setting [31]), 163%; in [10] (setting [32]) it was 104%; in [11] (setting [33]), 103%; in test [12] (setting [34]), 98.7%; in test [13] it was 94.3%.

Values taken from US10105357B2, “Indication of antibiotic drugs for preparation of cancer inhibition pharmaceutical composition” (LAUNX BIOMEDICAL CO., LTD., priority 2014, dated 2018).
